This is an account of results in patent US10683269B2 (MISSION THERAPEUTICS LIMITED, priority 2016, dated 2020).

pIC50: −log10 of the molar value.

T1 sequence (Q93009 whole entry): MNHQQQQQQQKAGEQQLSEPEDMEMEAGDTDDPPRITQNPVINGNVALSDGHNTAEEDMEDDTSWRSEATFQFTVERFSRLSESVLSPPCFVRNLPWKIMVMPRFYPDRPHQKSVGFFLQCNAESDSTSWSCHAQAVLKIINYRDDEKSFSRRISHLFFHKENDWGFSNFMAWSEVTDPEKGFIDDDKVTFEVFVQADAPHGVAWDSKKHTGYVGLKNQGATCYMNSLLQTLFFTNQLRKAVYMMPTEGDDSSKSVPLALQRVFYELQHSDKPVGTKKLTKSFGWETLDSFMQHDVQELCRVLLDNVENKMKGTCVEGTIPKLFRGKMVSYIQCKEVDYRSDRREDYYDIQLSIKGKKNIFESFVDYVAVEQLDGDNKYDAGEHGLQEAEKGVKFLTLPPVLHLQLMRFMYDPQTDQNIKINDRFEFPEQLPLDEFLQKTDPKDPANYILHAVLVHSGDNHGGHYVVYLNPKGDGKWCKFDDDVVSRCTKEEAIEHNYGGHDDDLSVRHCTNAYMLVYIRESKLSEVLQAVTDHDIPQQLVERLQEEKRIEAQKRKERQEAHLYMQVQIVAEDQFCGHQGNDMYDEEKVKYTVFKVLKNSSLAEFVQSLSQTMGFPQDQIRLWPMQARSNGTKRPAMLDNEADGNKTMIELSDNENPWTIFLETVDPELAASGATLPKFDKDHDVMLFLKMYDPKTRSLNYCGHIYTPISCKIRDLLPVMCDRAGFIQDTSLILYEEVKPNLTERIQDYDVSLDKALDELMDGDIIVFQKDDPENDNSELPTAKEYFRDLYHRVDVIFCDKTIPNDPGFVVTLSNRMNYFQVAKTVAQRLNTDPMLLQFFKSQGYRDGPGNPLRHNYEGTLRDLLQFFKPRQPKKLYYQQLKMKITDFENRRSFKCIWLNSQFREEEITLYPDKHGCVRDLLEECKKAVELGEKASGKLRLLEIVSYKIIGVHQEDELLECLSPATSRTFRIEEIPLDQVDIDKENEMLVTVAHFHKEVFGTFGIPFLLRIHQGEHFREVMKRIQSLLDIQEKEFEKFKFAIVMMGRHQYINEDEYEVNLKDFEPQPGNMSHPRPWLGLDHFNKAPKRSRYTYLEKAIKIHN

The experiment addresses T1, USP7 (Homo sapiens, UniProt Q93009).
T1 construct: The USP7 construct was PCR amplified and cloned into a pFLAG-CMV-6a vector (Sigma-Aldrich) with an N-terminal FLAG tag; made in house; host or cells: HEK293T
The experiment is described as follows: USP7 biochemical IC50 assay (fluorescence polarisation, TAMRA labelled peptide linked to ubiquitin via an iso-peptide bond). The conditions noted are these: 30 min pre-incubation of enzyme and compound, read after 2 hr incubation at room temperature, read-out: IC50 range. In a few lines: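 Fluorescence polarisation at 540 nm excitation/590 nm emission, read immediately and after 2 hr at room temperature, following addition of 50 nM TAMRA-labelled iso-peptide ubiquitin substrate.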
As usually defined, the pIC50 is −log10 of the IC50, conventionally taken in molar units. On to `N#CN1Cc2nc(NCCCn3ccnc3)nc(-c3ccccc3)c2C1` [Example 122, 2-((3-(1H-imidazol-1-yl)propyl)amino)-4-phenyl-5,7-dihydro-6H-pyrrolo[3,4-d]pyrimidine-6-carbonitrile], for which the pIC50 is 5.00 to 6.00.
Turning to `CCNc1nc2c(c(-c3ccccc3C(N)=O)n1)CN(C#N)C2` [Example 123, 2-(6-cyano-2-(ethylamino)-6,7-dihydro-5H-pyrrolo[3,4-c]pyrimidin-4-yl)benzamide], the pIC50 was 4.52 to 5.00.
The value for `CN1CCOC(CNc2nc3c(c(-c4ccccc4)n2)CN(C#N)C3)C1` (stereo not drawn) [Example 124, 2-(((4-methylmorpholin-2-yl)methyl)amino)-4-phenyl-5,7-dihydro-6H-pyrrolo[3,4-d]pyrimidine-6-carbonitrile] was 5.00 to 6.00.
The same measure for `CN1CCCC(CNc2nc3c(c(-c4ccccc4)n2)CN(C#N)C3)C1` (stereo not drawn) [Example 125, 2-(((1-methylpiperidin-3-yl)methyl)amino)-4-phenyl-5,7-dihydro-6H-pyrrolo[3,4-d]pyrimidine-6-carbonitrile]: 5.00 to 6.00; for `Cn1nccc1CNc1nc2c(c(-c3ccccc3)n1)CN(C#N)C2` [Example 126, 2-(((1-methyl-1H-pyrazol-5-yl)methyl)amino)-4-phenyl-5,7-dihydro-6H-pyrrolo[3,4-d]pyrimidine-6-carbonitrile]: 5.00 to 6.00; for `CN1CCC(CNc2nc3c(c(-c4ccccc4)n2)CN(C#N)C3)C1` (stereo not drawn) [Example 127, 2-(((1-methylpyrrolidin-3-yl)methyl)amino)-4-phenyl-5,7-dihydro-6H-pyrrolo[3,4-d]pyrimidine-6-carbonitrile]: 5.00 to 6.00.
The same measure for `CC(=O)Nc1nc2c(c(N3CCc4ccccc4C3)n1)CN(C#N)C2` [Example 128, N-(6-cyano-4-(3,4-dihydroisoquinolin-2(1H)-yl)-6,7-dihydro-5H-pyrrolo[3,4-d]pyrimidin-2-yl)acetamide]: 5.00 to 6.00.
For the molecule `N#CN1Cc2nc(NC(=O)C3CNC(=O)C3)nc(-c3ccccc3)c2C1` (stereo not drawn) [Example 129, N-(6-cyano-4-phenyl-6,7-dihydro-5H-pyrrolo[3,4-c]pyrimidin-2-yl)-5-oxopyrrolidine-3-carboxamide], the pIC50 is 4.52 to 5.00.
The same measure for `COc1ccc(-c2nc3c(c(N4CCCC4)n2)CN(C#N)C3)cc1` [Example 130, 2-(4-methoxyphenyl)-4-(pyrrolidin-1-yl)-5,7-dihydro-6H-pyrrolo[3,4-c]pyrimidine-6-carbonitrile]: 4.52 to 5.00.
Take `N#CN1Cc2nc(-c3ccccc3)nc(N3CCCC3C(N)=O)c2C1` (stereo not drawn) [Example 131, 1-(6-cyano-2-phenyl-6,7-dihydro-5H-pyrrolo[3,4-d]pyrimidin-4-yl)pyrrolidine-2-carboxamide]: the pIC50 is 4.52 to 5.00.
In the case of `N#CN1Cc2nc(-c3ccccc3)nc(NCC(N)=O)c2C1` [Example 132, 2-((6-cyano-2-phenyl-6,7-dihydro-5H-pyrrolo[3,4-d]pyrimidin-4-yl)amino)acetamide], the pIC50 was 4.52 to 5.00.
The same measure for `CNC(=O)C1CCCN1c1nc(-c2ccccc2)nc2c1CN(C#N)C2` (stereo not drawn) [Example 133, 1-(6-cyano-2-phenyl-6,7-dihydro-5H-pyrrolo[3,4-d]pyrimidin-4-yl)-N-methylpyrrolidine-2-carboxamide]: 4.52 to 5.00; for `Cc1[nH]ncc1-c1nc2c(c(N3CCCC3)n1)CN(C#N)C2` [Example 134, 2-(5-methyl-1H-pyrazol-4-yl)-4-(pyrrolidin-1-yl)-5,7-dihydro-6H-pyrrolo[3,4-d]pyrimidine-6-carbonitrile]: 4.52 to 5.00; for `COc1ccccc1-c1nc2c(c(N3CCCC3)n1)CN(C#N)C2` [Example 135, 2-(2-methoxyphenyl)-4-(pyrrolidin-1-yl)-5,7-dihydro-6H-pyrrolo[3,4-d]pyrimidine-6-carbonitrile]: 5.00 to 6.00.
In the case of `COc1cccc(-c2nc3c(c(N4CCCC4)n2)CN(C#N)C3)c1` [Example 136, 2-(3-methoxyphenyl)-4-(pyrrolidin-1-yl)-5,7-dihydro-6H-pyrrolo[3,4-d]pyrimidine-6-carbonitrile], the pIC50 was 4.00 to 4.52.
